Data: patent US7741253B2, “Methods and compositions for crosslinking polymers with boronic acids” (Halliburton Energy Services, Inc., priority 2004, dated 2010)

Assay: pH titration (method of Wiskur et al.)
Assay type: physicochemical
Protocol: The exemplary boronic acid crosslinking agent prepared as described above was compared to 1,4-phenylene diboronic acid and boric acid using a pH titration that was performed according to the method of S. L. Wiskur, et al., Org.

OB(O)O [Boric acid]
pH (NaOH 0 μL): 3.03
pH (NaOH 1 μL): 3.13
pH (NaOH 2 μL): 3.25
pH (NaOH 3 μL): 3.4
pH (NaOH 4 μL): 3.64
pH (NaOH 5 μL): 4.06
pH (NaOH 6 μL): 6.08
pH (NaOH 7 μL): 7.58
pH (NaOH 8 μL): 7.91
pH (NaOH 9 μL): 8.11
pH (NaOH 10 μL): 8.26
pH (NaOH 11 μL): 8.39
pH (NaOH 12 μL): 8.49
pH (NaOH 13 μL): 8.59
pH (NaOH 14 μL): 8.67
pH (NaOH 15 μL): 8.74
pH (NaOH 16 μL): 8.82
pH (NaOH 17 μL): 8.89
pH (NaOH 18 μL): 8.96
pH (NaOH 19 μL): 9.03
pH (NaOH 20 μL): 9.1
pH (NaOH 21 μL): 9.17
pH (NaOH 22 μL): 9.25
pH (NaOH 23 μL): 9.31
pH (NaOH 24 μL): 9.38
pH (NaOH 25 μL): 9.47
pH (NaOH 26 μL): 9.55
pH (NaOH 27 μL): 9.65
pH (NaOH 28 μL): 9.74
pH (NaOH 29 μL): 9.85
pH (NaOH 30 μL): 9.95
pH (NaOH 31 μL): 10.05
pH (NaOH 32 μL): 10.13
pH (NaOH 33 μL): 10.22
pH (NaOH 34 μL): 10.29
pH (NaOH 35 μL): 10.35
pH (NaOH 36 μL): 10.4
pH (NaOH 37 μL): 10.45
pH (NaOH 38 μL): 10.49
pH (NaOH 39 μL): 10.53
pH (NaOH 40 μL): 10.56
pH (NaOH 41 μL): 10.59
pH (NaOH 42 μL): 10.62
pH (NaOH 43 μL): 10.65
pH (NaOH 44 μL): 10.68
pH (NaOH 45 μL): 10.7
pH (NaOH 46 μL): 10.71
pH (NaOH 47 μL): 10.75
pH (NaOH 48 μL): 10.77
pH (NaOH 49 μL): 10.78
pH (NaOH 50 μL): 10.78
pH (NaOH 51 μL): 10.81
pH (NaOH 52 μL): 10.82
pH (NaOH 53 μL): 10.82
pH (NaOH 54 μL): 10.85
pH (NaOH 55 μL): 10.85
pH (NaOH 56 μL): 10.87
pH (NaOH 57 μL): 10.87
pH (NaOH 58 μL): 10.89
pH (NaOH 59 μL): 10.89
pH (NaOH 60 μL): 10.91
pH (NaOH 61 μL): 10.92
pH (NaOH 62 μL): 10.92
pH (NaOH 63 μL): 10.92
pH (NaOH 64 μL): 10.95
pH (NaOH 65 μL): 10.95
pH (NaOH 66 μL): 10.95
pH (NaOH 67 μL): 10.97
pH (NaOH 68 μL): 10.97
pH (NaOH 69 μL): 11
pH (NaOH 70 μL): 11
pH (NaOH 71 μL): 11
pH (NaOH 72 μL): 11
pH (NaOH 73 μL): 11
pH (NaOH 74 μL): 11
pH (NaOH 75 μL): 11.03
pH (NaOH 76 μL): 11.03
pH (NaOH 77 μL): 11.03

OB(O)c1ccc(B(O)O)cc1 [1,4-phenylene diboronic acid]
pH (NaOH 0 μL): 3.32
pH (NaOH 1 μL): 3.47
pH (NaOH 2 μL): 3.67
pH (NaOH 3 μL): 4.07
pH (NaOH 4 μL): 5.66
pH (NaOH 5 μL): 6.6
pH (NaOH 6 μL): 6.97
pH (NaOH 7 μL): 7.18
pH (NaOH 8 μL): 7.33
pH (NaOH 9 μL): 7.44
pH (NaOH 10 μL): 7.53
pH (NaOH 11 μL): 7.62
pH (NaOH 12 μL): 7.69
pH (NaOH 13 μL): 7.76
pH (NaOH 14 μL): 7.82
pH (NaOH 15 μL): 7.88
pH (NaOH 16 μL): 7.94
pH (NaOH 17 μL): 8
pH (NaOH 18 μL): 8.05
pH (NaOH 19 μL): 8.11
pH (NaOH 20 μL): 8.17
pH (NaOH 21 μL): 8.21
pH (NaOH 22 μL): 8.25
pH (NaOH 23 μL): 8.39
pH (NaOH 24 μL): 8.46
pH (NaOH 25 μL): 8.51
pH (NaOH 26 μL): 8.57
pH (NaOH 27 μL): 8.64
pH (NaOH 28 μL): 8.7
pH (NaOH 29 μL): 8.76
pH (NaOH 30 μL): 8.82
pH (NaOH 31 μL): 8.96
pH (NaOH 32 μL): 9.02
pH (NaOH 33 μL): 9.09
pH (NaOH 34 μL): 9.15
pH (NaOH 35 μL): 9.21
pH (NaOH 36 μL): 9.26
pH (NaOH 37 μL): 9.32
pH (NaOH 38 μL): 9.38
pH (NaOH 39 μL): 9.43
pH (NaOH 40 μL): 9.47
pH (NaOH 41 μL): 9.51
pH (NaOH 42 μL): 9.56
pH (NaOH 43 μL): 9.6
pH (NaOH 44 μL): 9.64
pH (NaOH 45 μL): 9.68
pH (NaOH 46 μL): 9.71
pH (NaOH 47 μL): 9.75
pH (NaOH 48 μL): 9.79
pH (NaOH 49 μL): 9.82
pH (NaOH 50 μL): 9.86
pH (NaOH 51 μL): 9.89
pH (NaOH 52 μL): 9.93
pH (NaOH 53 μL): 9.96
pH (NaOH 54 μL): 10
pH (NaOH 55 μL): 10.03
pH (NaOH 56 μL): 10.06
pH (NaOH 57 μL): 10.1
pH (NaOH 58 μL): 10.13
pH (NaOH 59 μL): 10.16
pH (NaOH 60 μL): 10.19
pH (NaOH 61 μL): 10.23
pH (NaOH 62 μL): 10.26
pH (NaOH 63 μL): 10.28
pH (NaOH 64 μL): 10.3
pH (NaOH 65 μL): 10.33
pH (NaOH 66 μL): 10.33
pH (NaOH 67 μL): 10.37
pH (NaOH 68 μL): 10.39
pH (NaOH 69 μL): 10.42
pH (NaOH 70 μL): 10.44
pH (NaOH 71 μL): 10.47
pH (NaOH 72 μL): 10.49
pH (NaOH 73 μL): 10.49
pH (NaOH 74 μL): 10.53
pH (NaOH 75 μL): 10.55
pH (NaOH 76 μL): 10.55
pH (NaOH 77 μL): 10.57
